Test results as given in the NIST ThermoML archive (doi:10.1021/acs.jced.6b00021).
Values joined by “and” are separate entries in the source; they are usually repeats but may differ in a detail not shown here. Identical values can stand only once. Numbers after ± are expanded uncertainties.

Details: Liquid; for viscosity / electrical conductivity / self diffusion coefficient: 101.33 kPa; for mass density: 100 kPa, Vibrating tube method; for electrical conductivity: Alternating current cell with electrodes; for self diffusion coefficient: NMR spin-echo technique

CCn1cc[n+](C)c1.N#C[B-](C#N)(C#N)C#N [1-ethyl-3-methylimidazolium tetracyanoborate]
Falling or rolling sphere viscometry
Details	viscosity
263.15 K	111.3 ± 5.2 mPa·s
264.05 K	108.4 ± 5 mPa·s
265.65 K	96.35 ± 4.3 mPa·s and 96.52 ± 4.3 mPa·s
268.15 K	81 ± 3.5 mPa·s [middle of 6 runs]
273.15 K	58.91 ± 2.4 mPa·s and 58.87 ± 2.4 mPa·s and 60.07 ± 2.4 mPa·s
278.15 K	44.77 ± 1.8 mPa·s
283.15 K	34.55 ± 1.4 mPa·s and 34.65 ± 1.4 mPa·s and 34.73 ± 1.4 mPa·s
288.15 K	27.4 ± 1.1 mPa·s and 27.3 ± 1.1 mPa·s and 27.14 ± 1.1 mPa·s
293.15 K	22.35 ± 0.91 mPa·s [middle of 6 runs]
296.15 K	19.62 ± 0.8 mPa·s [middle of 4 runs]
298.15 K	18.51 ± 0.75 mPa·s [middle of 4 runs]
300.15 K	17.16 ± 0.7 mPa·s and 16.93 ± 0.69 mPa·s
303.15 K	15.47 ± 0.63 mPa·s and 15.64 ± 0.64 mPa·s and 15.62 ± 0.63 mPa·s
313.15 K	11.25 ± 0.46 mPa·s [middle of 5 runs]
323.15 K	8.531 ± 0.35 mPa·s and 8.521 ± 0.35 mPa·s and 8.518 ± 0.35 mPa·s
333.15 K	6.68 ± 0.27 mPa·s
338.15 K	5.992 ± 0.24 mPa·s and 6.022 ± 0.24 mPa·s
343.15 K	5.399 ± 0.22 mPa·s and 5.4 ± 0.22 mPa·s and 5.395 ± 0.22 mPa·s
348.15 K	4.921 ± 0.2 mPa·s and 4.92 ± 0.2 mPa·s
353.15 K	4.458 ± 0.18 mPa·s and 4.455 ± 0.18 mPa·s and 4.454 ± 0.18 mPa·s

Details	mass density [kg/m3]
273.15 K	1056.29 ± 0.6
283.15 K	1048.19 ± 0.6
293.15 K	1040.2 ± 0.6
298.15 K	1036.25 ± 0.6
303.15 K	1032.31 ± 0.6
313.15 K	1024.52 ± 0.6
323.15 K	1016.81 ± 0.6
333.15 K	1009.19 ± 0.6
343.15 K	1001.66 ± 0.6
353.15 K	994.2 ± 0.6
363.15 K	986.83 ± 0.6

C[N+](C)(C)CCO.O=S(=O)([N-]S(=O)(=O)C(F)(F)F)C(F)(F)F [choline bis(trifluoromethylsulfonyl)imide]
Details	mass density [kg/m3]
313.15 K	1513.41 ± 2.1
315.65 K	1511.12 ± 2.1
318.15 K	1508.82 ± 2.1
323.15 K	1504.27 ± 2
328.15 K	1499.7 ± 2
333.15 K	1495.16 ± 2
338.15 K	1490.66 ± 2
343.15 K	1486.16 ± 2
348.15 K	1481.69 ± 2
353.15 K	1477.22 ± 2
358.15 K	1472.78 ± 2
363.15 K	1468.35 ± 1.9

CCn1cc[n+](C)c1.CS(=O)(=O)[O-] [1-ethyl-3-methylimidazolium methanesulfonate]
Details	electrical conductivity	mass density [kg/m3]	self diffusion coefficient [m2/s]
273.15 K	0.0413 ± 0.00083 S/m	–	–
278.15 K	0.0656 ± 0.0013 S/m	1256.19 ± 0.61	–
280.65 K	–	1254.4 ± 0.61	–
283.15 K	0.0988 ± 0.002 S/m	1252.62 ± 0.61	–
285.65 K	–	1250.84 ± 0.61	–
288.15 K	0.142 ± 0.0028 S/m	1249.07 ± 0.61	–
293.15 K	0.197 ± 0.004 S/m	1245.55 ± 0.61	–
294 K	–	–	7.63e-12
296.58 K	–	–	9e-12
296.62 K	–	–	9.07e-12
298.15 K	0.265 S/m and 0.259 S/m	1242.06 ± 0.61	–
298.98 K	–	–	1.02e-11
299.01 K	–	–	1.03e-11
300.65 K	0.298 ± 0.006 S/m	–	–
301.63 K	–	–	1.23e-11
301.77 K	–	–	1.24e-11
303.15 K	0.346 S/m and 0.34 S/m	1238.7 ± 0.61	–
304 K	–	–	1.35e-11
304.01 K	–	–	1.34e-11
305.65 K	0.386 ± 0.0077 S/m	–	–
306.53 K	–	–	1.52e-11
306.58 K	–	–	1.55e-11
308.15 K	0.435 ± 0.0087 S/m	–	–
310.65 K	0.488 ± 0.0098 S/m	–	–
313.15 K	0.553 ± 0.011 S/m	1231.94 ± 0.61	–
313.69 K	–	–	2.21e-11
313.74 K	–	–	2.21e-11
323.15 K	0.821 ± 0.016 S/m	1225.21 ± 0.61	–
323.7 K	–	–	3.42e-11
323.73 K	–	–	3.43e-11
333.15 K	1.15 ± 0.023 S/m	1218.52 ± 0.61	–
333.42 K	–	–	5.06e-11
333.52 K	–	–	5.07e-11
343.15 K	1.55 ± 0.031 S/m	1211.87 ± 0.61	–
343.66 K	–	–	7.13e-11
343.73 K	–	–	7.12e-11
353.15 K	1.99 ± 0.04 S/m	1205.26 ± 0.61	–
353.4 K	–	–	9.71e-11
353.61 K	–	–	9.7e-11
363.15 K	–	1198.74 ± 0.61	–

viscosity
Details	Concentric cylinders viscometry	Falling or rolling sphere viscometry
273.15 K	1250.4 ± 70 mPa·s	–
278.15 K	749.3 ± 39 mPa·s	–
283.15 K	475.8 ± 23 mPa·s	472.2 ± 38 mPa·s and 472.4 ± 38 mPa·s
285.65 K	–	379 ± 28 mPa·s
288.15 K	317.1 ± 15 mPa·s	314.8 ± 22 mPa·s and 315.7 ± 22 mPa·s
293.15 K	219.7 ± 9.7 mPa·s and 220.2 ± 9.7 mPa·s and 220 ± 9.7 mPa·s	218.9 ± 13 mPa·s and 219.3 ± 13 mPa·s
296.15 K	–	181.5 ± 10 mPa·s and 179.5 ± 10 mPa·s and 179.8 ± 10 mPa·s
298.15 K	158.2 ± 6.7 mPa·s	159.8 ± 8.6 mPa·s and 160.6 ± 8.6 mPa·s
300.15 K	–	138.8 ± 7.1 mPa·s [middle of 4 runs]
303.15 K	115.6 ± 4.8 mPa·s	116.3 ± 5.5 mPa·s
305.65 K	–	101.8 ± 4.6 mPa·s and 102 ± 4.7 mPa·s
308.15 K	–	89.34 ± 3.9 mPa·s and 89.37 ± 3.9 mPa·s
313.15 K	66.71 ± 2.7 mPa·s	69.08 ± 2.9 mPa·s and 69.13 ± 2.9 mPa·s and 69.74 ± 2.9 mPa·s
323.15 K	43.42 ± 1.7 mPa·s	44.52 ± 1.8 mPa·s and 44.54 ± 1.8 mPa·s
333.15 K	30.27 ± 1.2 mPa·s	30.49 ± 1.2 mPa·s and 30.68 ± 1.2 mPa·s
343.15 K	22.11 ± 0.89 mPa·s	21.93 ± 0.89 mPa·s and 21.98 ± 0.89 mPa·s
353.15 K	16.66 ± 0.67 mPa·s	16.42 ± 0.67 mPa·s and 16.46 ± 0.67 mPa·s
363.15 K	12.94 ± 0.52 mPa·s	12.73 ± 0.52 mPa·s and 12.81 ± 0.52 mPa·s

CCn1cc[n+](C)c1.O=S(=O)([O-])C(F)(F)F [1-ethyl-3-methylimidazolium trifluoromethanesulfonate]
Falling or rolling sphere viscometry
Details	viscosity
268.15 K	172.2 ± 9.5 mPa·s and 172.4 ± 9.5 mPa·s
273.15 K	130.7 ± 6.5 mPa·s and 130.6 ± 6.5 mPa·s
278.15 K	102.3 ± 4.7 mPa·s and 102 ± 4.7 mPa·s
283.15 K	80.26 ± 3.4 mPa·s and 80.24 ± 3.4 mPa·s
293.15 K	52.45 ± 2.1 mPa·s
298.15 K	43.54 ± 1.8 mPa·s [middle of 4 runs]
300.65 K	39.67 ± 1.6 mPa·s and 39.64 ± 1.6 mPa·s
303.15 K	36.27 ± 1.5 mPa·s
305.65 K	33.3 ± 1.4 mPa·s and 33.29 ± 1.4 mPa·s
308.15 K	30.75 ± 1.3 mPa·s and 30.7 ± 1.2 mPa·s
313.15 K	26.21 ± 1.1 mPa·s and 26.2 ± 1.1 mPa·s
323.15 K	19.57 ± 0.8 mPa·s and 19.48 ± 0.8 mPa·s
333.15 K	15.02 ± 0.61 mPa·s
343.15 K	11.78 ± 0.48 mPa·s and 11.73 ± 0.48 mPa·s
348.15 K	10.51 ± 0.43 mPa·s

Details	electrical conductivity	mass density
273.15 K	0.346 ± 0.014 S/m	1407.23 ± 0.72 kg/m3
278.15 K	0.433 ± 0.017 S/m	1402.99 ± 0.72 kg/m3
283.15 K	0.534 ± 0.021 S/m	1398.75 ± 0.72 kg/m3
288.15 K	0.647 ± 0.026 S/m	–
293.15 K	0.772 ± 0.031 S/m	1390.28 ± 0.72 kg/m3 and 1390.27 ± 0.72 kg/m3
298.15 K	0.915 S/m and 0.91 S/m	1386.04 ± 0.71 kg/m3 and 1386.06 ± 0.71 kg/m3
303.15 K	1.06 ± 0.042 S/m	1381.85 ± 0.71 kg/m3
313.15 K	1.42 ± 0.057 S/m	1373.47 ± 0.71 kg/m3 and 1373.45 ± 0.71 kg/m3
323.15 K	1.82 ± 0.073 S/m	1365.14 ± 0.71 kg/m3
333.15 K	2.25 ± 0.09 S/m	1356.86 ± 0.7 kg/m3
343.15 K	2.76 ± 0.11 S/m	1348.64 ± 0.7 kg/m3
353.15 K	3.29 ± 0.13 S/m	1340.46 ± 0.7 kg/m3
363.15 K	–	1332.32 ± 0.7 kg/m3

CC1COC(=O)O1 (centres undefined) [4-methyl-1,3-dioxolan-2-one]
Details	mass density [kg/m3]	self diffusion coefficient
251.94 K	–	1.29e-10 m2/s
251.99 K	–	1.25e-10 m2/s and 1.24e-10 m2/s
262.92 K	–	1.95e-10 m2/s and 1.9e-10 m2/s
262.93 K	–	1.96e-10 m2/s and 1.93e-10 m2/s
273.09 K	–	2.76e-10 m2/s and 2.73e-10 m2/s
273.15 K	1226.25 ± 0.61	2.73e-10 m2/s and 2.65e-10 m2/s
278.15 K	1220.9 ± 0.61	–
278.27 K	–	3.12e-10 m2/s
278.28 K	–	3.19e-10 m2/s
278.51 K	–	3.19e-10 m2/s
283.15 K	1215.55 ± 0.61	–
283.25 K	–	3.7e-10 m2/s and 3.63e-10 m2/s
283.27 K	–	3.7e-10 m2/s and 3.68e-10 m2/s
288.26 K	–	4.06e-10 m2/s and 4.1e-10 m2/s and 4.07e-10 m2/s
293.15 K	1204.89 ± 0.61	–
293.21 K	–	4.58e-10 m2/s
293.27 K	–	4.62e-10 m2/s and 4.6e-10 m2/s
298.05 K	–	5.14e-10 m2/s
298.14 K	–	5.02e-10 m2/s and 5.01e-10 m2/s
298.15 K	1199.58 ± 0.61	–
298.19 K	–	5.24e-10 m2/s and 5.21e-10 m2/s
298.21 K	–	5.23e-10 m2/s
298.26 K	–	5.24e-10 m2/s
303.15 K	1194.27 ± 0.61	–
303.18 K	–	5.99e-10 m2/s and 5.89e-10 m2/s
303.19 K	–	5.98e-10 m2/s and 5.86e-10 m2/s
308.21 K	–	6.71e-10 m2/s and 6.58e-10 m2/s
308.27 K	–	6.74e-10 m2/s and 6.54e-10 m2/s
308.78 K	–	6.55e-10 m2/s
308.86 K	–	6.59e-10 m2/s
313.15 K	1183.67 ± 0.61	–
313.39 K	–	7.44e-10 m2/s and 7.43e-10 m2/s
313.41 K	–	7.32e-10 m2/s and 7.46e-10 m2/s
318.26 K	–	8.17e-10 m2/s and 8.06e-10 m2/s
318.4 K	–	8.14e-10 m2/s and 8.18e-10 m2/s
323.15 K	1173.08 ± 0.61	–
323.2 K	–	8.97e-10 m2/s and 9.06e-10 m2/s
323.25 K	–	9.05e-10 m2/s and 8.92e-10 m2/s
323.65 K	–	8.96e-10 m2/s and 8.76e-10 m2/s
323.67 K	–	8.78e-10 m2/s and 8.71e-10 m2/s
333.08 K	–	1.05e-09 m2/s
333.13 K	–	1.04e-09 m2/s
333.15 K	1162.5 ± 0.61	–
342.8 K	–	1.22e-09 m2/s
342.86 K	–	1.18e-09 m2/s
343.15 K	1151.92 ± 0.61	–
352.52 K	–	1.4e-09 m2/s
352.61 K	–	1.42e-09 m2/s
352.68 K	–	1.35e-09 m2/s
353.15 K	1141.33 ± 0.61	–
363.15 K	1130.73 ± 0.61	–
